Tested on: HUVEC
Assay: Antiangiogenic activity in HUVEC cells assessed as inhibition of hEGF-induced tubular formation at 1 ug/mL after 24 hrs relative to control
Format: functional, Homo sapiens
Set-up: scale not given: the % may be the effect or the level left

SMILES: O=C1NCCc2cc(Br)c(O)c(c2)Oc2c(Br)cc(cc2Br)[C@H](O)CNC(=O)/C(=N/O)Cc2cc(Br)c(O)c(c2)Oc2ccc(cc2Br)C/C1=N\O [BASTADIN 12]
- Activity: 27.6%

SMILES: O=C1N/C=C/c2ccc(c(Br)c2)Oc2cc(cc(Br)c2O)CCNC(=O)/C(=N/O)Cc2ccc(c(Br)c2)Oc2cc(cc(Br)c2O)C/C1=N\O [BASTADIN 7]
- Activity: 37.3%

Source: ChEMBL document CHEMBL1144839, “Cytotoxic bastadin 24 from the Australian sponge Ianthella quadrangulata” (J Nat Prod, 2008)
